US20070281992A1, “COMBINATION OF GYRASE B INHIBITORS AND PROTEIN SYNTHESIS INHIBITORS AND USES THEREOF” (priority 2006, published 2007)
Read-outs that look alike come from different tables or passages of the source.

Tests used:
Assay type in all cases: cell-based
[1] = system: Methicillin-Susceptible Staphylococcus aureus Isolates; experiment: MIC assay (NCCLS broth dilution), MSSA clinical isolates
Procedure, shortened: (§1)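 Broth microdilution MIC run per NCCLS M7-A6 guidelines in Mueller Hinton II broth, over 11 two-fold serial dilutions of test agent. Novobiocin/tetracycline and novobiocin/minocycline combinations were tested at a 2.5:1 ratio to mimic serum levels; vancomycin served as control agent.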

[2] = system: Vancomycin-intermediate Staphylococcus aureus Isolates; experiment: MIC assay (NCCLS broth dilution), VISA isolates; conditions: for MIC: read-out: Minimal Inhibitory Concentration
Procedure, shortened: as §1

[3] = system: Unconfirmed Vancomycin-intermediate Staphylococcus aureus Isolates; experiment: MIC assay (NCCLS broth dilution), unconfirmed VISA isolates; conditions: for MIC: read-out: Minimal Inhibitory Concentration
Procedure, shortened: as §1

[4] = system: Vancomycin-intermediate Staphylococcus epidermidis Isolates; experiment: MIC assay (NCCLS broth dilution), VISE isolates; conditions: for MIC: read-out: Minimal Inhibitory Concentration
Procedure, shortened: as §1

[5] = system: Unconfirmed Vancomycin-intermediate Staphylococcus epidermidis Isolates; experiment: MIC assay (NCCLS broth dilution), unconfirmed VISE isolates; conditions: for MIC: read-out: Minimal Inhibitory Concentration
Procedure, shortened: as §1

[6] = system: Linezolid-Resistant Staphylococcus aureus Isolates; experiment: MIC assay (NCCLS broth dilution), LRSA isolates; conditions: for MIC: read-out: Minimal Inhibitory Concentration
Procedure, shortened: as §1

[7] = Staphylococcus aureus, 52 MSSA isolates, combinations at 2.5:1, given as NB/partner

CO[C@@H]1[C@@H](OC(N)=O)[C@@H](O)[C@H](Oc2ccc3c(O)c(NC(=O)c4ccc(O)c(CC=C(C)C)c4)c(=O)oc3c2C)OC1(C)C [NB, novobiocin]
MIC Range ([1]; 52 MSSA isolates, Mueller Hinton II Broth, combinations at 2.5:1, given as NB/partner): .08 to 10 mg/L
MIC ([1]; Staphylococcus aureus, MSSA isolate 133, 03MAR06, read-out: Minimal Inhibitory Concentration): 0.15 mg/L
MIC ([1]; Staphylococcus aureus, MSSA isolate 134, 03MAR06, read-out: Minimal Inhibitory Concentration): 0.08 mg/L
MIC ([1]; Staphylococcus aureus, MSSA isolate 135, 03MAR06, read-out: Minimal Inhibitory Concentration): 0.31 mg/L
MIC ([1]; Staphylococcus aureus, MSSA isolate 753, 22FEB06, read-out: Minimal Inhibitory Concentration): 0.31 mg/L
MIC ([1]; Staphylococcus aureus, MSSA isolate 754, 22FEB06, read-out: Minimal Inhibitory Concentration): 0.31 mg/L
MIC ([1]; Staphylococcus aureus, MSSA isolate 754, 24FEB06, read-out: Minimal Inhibitory Concentration): 0.31 mg/L
MIC ([1]; Staphylococcus aureus, MSSA isolate 755, 22FEB06, read-out: Minimal Inhibitory Concentration): 0.31 mg/L
MIC ([1]; Staphylococcus aureus, MSSA isolate 756, 03MAR06, read-out: Minimal Inhibitory Concentration): 0.15 mg/L
MIC ([1]; Staphylococcus aureus, MSSA isolate 779, 22FEB06, read-out: Minimal Inhibitory Concentration): 0.31 mg/L
MIC ([1]; Staphylococcus aureus, MSSA isolate 780, 03MAR06, read-out: Minimal Inhibitory Concentration): 0.31 mg/L
MIC ([1]; Staphylococcus aureus, MSSA isolate 781, 03MAR06, read-out: Minimal Inhibitory Concentration): 0.15 mg/L
MIC ([1]; Staphylococcus aureus, MSSA isolate 782, 22FEB06, read-out: Minimal Inhibitory Concentration): 0.15 mg/L
MIC ([1]; Staphylococcus aureus, MSSA isolate 783, 22FEB06, read-out: Minimal Inhibitory Concentration): 0.31 mg/L
MIC ([1]; Staphylococcus aureus, MSSA isolate 784, 22FEB06, read-out: Minimal Inhibitory Concentration): 0.31 mg/L
MIC ([1]; Staphylococcus aureus, MSSA isolate 785, 22FEB06, read-out: Minimal Inhibitory Concentration): 0.15 mg/L
MIC ([1]; Staphylococcus aureus, MSSA isolate 786, 22FEB06, read-out: Minimal Inhibitory Concentration): 0.15 mg/L
MIC ([1]; Staphylococcus aureus, MSSA isolate 787, 22FEB06, read-out: Minimal Inhibitory Concentration): 0.15 mg/L
MIC ([1]; Staphylococcus aureus, MSSA isolate 788, 22FEB06, read-out: Minimal Inhibitory Concentration): 0.15 mg/L
MIC ([1]; Staphylococcus aureus, MSSA isolate 789, 24FEB06, read-out: Minimal Inhibitory Concentration): 0.31 mg/L
MIC ([1]; Staphylococcus aureus, MSSA isolate 790, 24FEB06, read-out: Minimal Inhibitory Concentration): 0.31 mg/L
MIC ([1]; Staphylococcus aureus, MSSA isolate 791, 24FEB06, read-out: Minimal Inhibitory Concentration): 0.15 mg/L
MIC ([1]; Staphylococcus aureus, MSSA isolate 792, 03MAR06, read-out: Minimal Inhibitory Concentration): 0.15 mg/L
MIC ([1]; Staphylococcus aureus, MSSA isolate 793, 24FEB06, read-out: Minimal Inhibitory Concentration): 0.31 mg/L
MIC ([1]; Staphylococcus aureus, MSSA isolate 794, 24FEB06, read-out: Minimal Inhibitory Concentration): 0.31 mg/L
MIC ([1]; Staphylococcus aureus, MSSA isolate 994, 22FEB06, read-out: Minimal Inhibitory Concentration): 0.15 mg/L
MIC ([1]; Staphylococcus aureus, MSSA isolate 995, 03MAR06, read-out: Minimal Inhibitory Concentration): 0.31 mg/L
MIC ([1]; Staphylococcus aureus, MSSA isolate 996, 22FEB06, read-out: Minimal Inhibitory Concentration): 0.31 mg/L
MIC ([1]; Staphylococcus aureus, MSSA isolate 997, 22FEB06, read-out: Minimal Inhibitory Concentration): 0.31 mg/L
MIC ([1]; Staphylococcus aureus, MSSA isolate 998, 03MAR06, read-out: Minimal Inhibitory Concentration): 0.31 mg/L
MIC ([1]; Staphylococcus aureus, MSSA isolate 999, 22FEB06, read-out: Minimal Inhibitory Concentration): 0.15 mg/L
MIC ([1]; Staphylococcus aureus, MSSA isolate 1000, 24FEB06, read-out: Minimal Inhibitory Concentration): 0.15 mg/L
MIC ([1]; Staphylococcus aureus, MSSA isolate 1001, 24FEB06, read-out: Minimal Inhibitory Concentration): 0.31 mg/L
MIC ([1]; Staphylococcus aureus, MSSA isolate 1002, 24FEB06, read-out: Minimal Inhibitory Concentration): 0.15 mg/L
MIC ([1]; Staphylococcus aureus, MSSA isolate 1003, 03MAR06, read-out: Minimal Inhibitory Concentration): 0.08 mg/L
MIC ([1]; Staphylococcus aureus, MSSA isolate 1005, 24FEB06, read-out: Minimal Inhibitory Concentration): 0.08 mg/L
MIC ([1]; Staphylococcus aureus, MSSA isolate 1006, 24FEB06, read-out: Minimal Inhibitory Concentration): 0.31 mg/L
MIC ([1]; Staphylococcus aureus, MSSA isolate 1007, 24FEB06, read-out: Minimal Inhibitory Concentration): 0.31 mg/L
MIC ([1]; Staphylococcus aureus, MSSA isolate 1008, 24FEB06, read-out: Minimal Inhibitory Concentration): 0.625 mg/L
MIC ([1]; Staphylococcus aureus, MSSA isolate 1009, 24FEB06, read-out: Minimal Inhibitory Concentration): 0.15 mg/L
MIC ([1]; Staphylococcus aureus, MSSA isolate 1131, 24FEB06, read-out: Minimal Inhibitory Concentration): 0.15 mg/L
MIC ([1]; Staphylococcus aureus, MSSA isolate 1132, 03MAR06, read-out: Minimal Inhibitory Concentration): 0.15 mg/L
MIC ([1]; Staphylococcus aureus, MSSA isolate 1133, 24FEB06, read-out: Minimal Inhibitory Concentration): 0.15 mg/L
MIC ([1]; Staphylococcus aureus, MSSA isolate 1134, 24FEB06, read-out: Minimal Inhibitory Concentration): 0.31 mg/L
MIC ([1]; Staphylococcus aureus, MSSA isolate 1654, 03MAR06, read-out: Minimal Inhibitory Concentration): 0.31 mg/L
MIC ([1]; Staphylococcus aureus, MSSA isolate 1656, 03MAR06, read-out: Minimal Inhibitory Concentration): 0.15 mg/L
MIC ([1]; Staphylococcus aureus, MSSA isolate 1662, 03MAR06, read-out: Minimal Inhibitory Concentration): 0.15 mg/L
MIC ([1]; Staphylococcus aureus, MSSA isolate 1663, 03MAR06, read-out: Minimal Inhibitory Concentration): 0.15 mg/L
MIC ([1]; Staphylococcus aureus, MSSA isolate 1666, 03MAR06, read-out: Minimal Inhibitory Concentration): 0.31 mg/L
MIC ([1]; Staphylococcus aureus, MSSA isolate 1667, 03MAR06, read-out: Minimal Inhibitory Concentration): 0.15 mg/L
MIC ([1]; Staphylococcus aureus, MSSA isolate 1668, 03MAR06, read-out: Minimal Inhibitory Concentration): 0.15 mg/L
MIC ([1]; Staphylococcus aureus, MSSA isolate 1671, 03MAR06, read-out: Minimal Inhibitory Concentration): 0.15 mg/L
MIC ([1]; Staphylococcus aureus, MSSA isolate 1728, 03MAR06, read-out: Minimal Inhibitory Concentration): 10 mg/L
MIC ([1]; Staphylococcus aureus, MSSA isolate 1728, retest 09MAR06, read-out: Minimal Inhibitory Concentration): 10 mg/L
MIC ([1]; Staphylococcus aureus, MSSA isolate #1728 (novobiocin-resistant), read-out: MIC): 10 mg/L
MIC50 [1, 7]: 0.15 mg/L
MIC90 [1, 7]: 0.312 mg/L
MIC Range ([1]; the other 51 MSSA isolates (without #1728)): 0.08 to 0.62 mg/L
MIC Range ([2]; 2 VISA isolates, combinations at 2.5:1, given as NB/partner): ≦.04-.08 μg/ml
MIC ([2]; Staphylococcus aureus, VISA isolate 2012, 03MAR06): 0.08 mg/L
MIC ([2]; Staphylococcus aureus, VISA isolate 2018, 03MAR06): ≤ 0.04 mg/L
MIC50 ([2]; Staphylococcus aureus, 2 VISA isolates, combinations at 2.5:1, given as NB/partner): ≤ 0.04 mg/L
MIC Range ([3]; 6 unconfirmed VISA isolates (vancomycin MIC 4 ug/ml), combinations at 2.5:1): ≦.04-.15 μg/ml
MIC ([3]; Staphylococcus aureus, Unconfirmed VISA isolate 2013, 03MAR06): 0.08 mg/L
MIC ([3]; Staphylococcus aureus, Unconfirmed VISA isolate 2014, 03MAR06): 0.15 mg/L
MIC ([3]; Staphylococcus aureus, Unconfirmed VISA isolate 2015, 03MAR06): ≤ 0.04 mg/L
MIC ([3]; Staphylococcus aureus, Unconfirmed VISA isolate 2016, 03MAR06): ≤ 0.04 mg/L
MIC ([3]; Staphylococcus aureus, Unconfirmed VISA isolate 2017, 03MAR06): 0.15 mg/L
MIC ([3]; Staphylococcus aureus, Unconfirmed VISA isolate 2019, 03MAR06): ≤ 0.04 mg/L
MIC50 ([3]; Staphylococcus aureus, 6 unconfirmed VISA isolates (vancomycin MIC 4 ug/ml), combinations at 2.5:1): ≤ 0.04 mg/L
MIC Range ([4]; 4 VISE isolates, combinations at 2.5:1): ≦.04-.08 μg/ml
MIC ([4]; Staphylococcus epidermidis, VISE isolate 2020, 09MAR06): 0.08 mg/L
MIC ([4]; Staphylococcus epidermidis, VISE isolate 2021, 09MAR06): ≤ 0.04 mg/L
MIC ([4]; Staphylococcus epidermidis, VISE isolate 2022, 03MAR06): ≤ 0.04 mg/L
MIC ([4]; Staphylococcus epidermidis, VISE isolate 2023, 03MAR06): < 0.04 mg/L
MIC50 ([4]; Staphylococcus epidermidis, 4 VISE isolates, combinations at 2.5:1): ≤ 0.04 mg/L
MIC Range ([5]; 3 unconfirmed VISE isolates, combinations at 2.5:1): ≦.04-5 μg/ml
MIC ([5]; Staphylococcus epidermidis, Unconfirmed VISE isolate 2024, 09MAR06): 5 mg/L
MIC ([5]; Staphylococcus epidermidis, Unconfirmed VISE isolate 2025, 09MAR06): 0.312 mg/L
MIC ([5]; Staphylococcus epidermidis, Unconfirmed VISE isolate 2026, 03MAR06): ≤ 0.04 mg/L
MIC50 ([5]; Staphylococcus epidermidis, 3 unconfirmed VISE isolates, combinations at 2.5:1): 0.312 mg/L
MIC Range ([6]; 3 LRSA isolates, combinations at 2.5:1): 0.15 mg/L
MIC ([6]; Staphylococcus aureus, LRSA isolate 1651, 24FEB06): 0.15 mg/L
MIC ([6]; Staphylococcus aureus, LRSA isolate 1652, 24FEB06): 0.15 mg/L
MIC ([6]; Staphylococcus aureus, LRSA isolate 1725, 24FEB06): 0.15 mg/L
MIC50 ([6]; Staphylococcus aureus, 3 LRSA isolates, combinations at 2.5:1): 0.15 mg/L
